Measurements from ChEMBL document CHEMBL6071160, “Identification of a novel 10-hydroxyevodiamine prodrug as a potent topoisomerase inhibitor with improved aqueous solubility for treatment of hepatocellular carcinoma” (Eur J Med Chem, 2024).
The source made the active and inactive calls. No cut-off for these calls is given here.

Legend:
SK-HEP1 [1] = test: Induction of apoptosis in human SK-HEP1 cells assessed as late apoptotic cells at 40 nM measured after 24 hrs by Annexin-V-FITC/PI analysis (reference value: 0.64%); type: functional
[2] = AUC (0 to t) in Sprague-Dawley rat at 10 mg/kg, ip measured upto 24 hrs by LC-MS/MS analysis; type: ADME, organism-based; details: in vivo
[3] = Toxicity in BALB/c nude mouse subcutaneously injected with human Huh-7 cells assessed as change in body weight at 40 mg/kg, ip administered once daily measured after 14 days; type: organism-based; details: in vivo, 336 h, time 14 day
SK-HEP1 [4] = test: Inhibition of cell migration in human SK-HEP1 cells at 20 nM measured for 24 hrs by scratch wound healing assay; type: functional, cell-based
[5] = Toxicity in BALB/c nude mouse subcutaneously injected with human Huh-7 cells assessed as animal death at 40 mg/kg, ip administered once daily measured after 14 days; type: organism-based; details: in vivo, 336 h, time 14 day
Huh-7 [6] = test: Inhibition of cell invasion in human Huh-7 cells assessed as decrease in number of cells migration into lower compartment at 10 nM measured after 24 hrs by transwell assay; type: functional, cell-based
Huh-7 [7] = test: Induction of apoptosis in human Huh-7 cells assessed as early apoptotic cells at 80 nM measured after 24 hrs by Annexin-V-FITC/PI analysis (reference value: 1.04%); type: functional
SK-HEP1 [8] = test: Induction of apoptosis in human SK-HEP1 cells assessed as ROS generation by measuring DCFH2-DA stained cells at 40 nM measured after 24 hrs […] (reference value: 0.14%); type: functional
Huh-7 [9] = test: Induction of apoptosis in human Huh-7 cells assessed as late apoptotic cells at 80 nM measured after 24 hrs by Annexin-V-FITC/PI analysis (reference value: 1.23%); type: functional
[10] = Toxicity in BALB/c nude mouse subcutaneously injected with human Huh-7 cells assessed as change in white blood cells at 10 mg/kg, ip administered once daily measured after 14 days; type: organism-based; details: in vivo, 336 h, time 14 day
[11] = Toxicity in BALB/c nude mouse subcutaneously injected with human Huh-7 cells assessed as change in body weight at 40 mg/kg, ip administered once other day measured after 14 days; type: organism-based; details: in vivo, 336 h, time 14 day
Huh-7 [12] = test: Induction of cell cycle arrest in human Huh-7 cells assessed as accumulation of cells at G2 phase 20 nM measured after 24 hrs by flow cytometric assay (reference value: 13.66%); type: functional
SMMC-7721 = test: Antiproliferative activity against human SMMC-7721 cells assessed as inhibition of cell proliferation incubated for 72 hrs by MTT assay; type: functional, cell-based; details: SMMC-7721, 72 h
SK-HEP1 [13] = test: Induction of cell cycle arrest in human SK-HEP1 cells assessed as accumulation of cells at S phase 40 nM measured after 24 hrs by flow cytometric assay (reference value: 30.04%); type: functional
[14] = target: T1, DNA topoisomerase 1 (Homo sapiens) (UniProt P11387); test: Inhibition of DNA topoisomerase 1 (unknown origin) assessed as relaxation of supercoiled plasmid pBR322 DNA at 25 to 100 uM incubated for 15 mins measured after 30 mins addition of ethidium bromide by agarose gel electrophoresis; details: dose 25-100 µM, time 45.0 min
T1 sequence (whole entry): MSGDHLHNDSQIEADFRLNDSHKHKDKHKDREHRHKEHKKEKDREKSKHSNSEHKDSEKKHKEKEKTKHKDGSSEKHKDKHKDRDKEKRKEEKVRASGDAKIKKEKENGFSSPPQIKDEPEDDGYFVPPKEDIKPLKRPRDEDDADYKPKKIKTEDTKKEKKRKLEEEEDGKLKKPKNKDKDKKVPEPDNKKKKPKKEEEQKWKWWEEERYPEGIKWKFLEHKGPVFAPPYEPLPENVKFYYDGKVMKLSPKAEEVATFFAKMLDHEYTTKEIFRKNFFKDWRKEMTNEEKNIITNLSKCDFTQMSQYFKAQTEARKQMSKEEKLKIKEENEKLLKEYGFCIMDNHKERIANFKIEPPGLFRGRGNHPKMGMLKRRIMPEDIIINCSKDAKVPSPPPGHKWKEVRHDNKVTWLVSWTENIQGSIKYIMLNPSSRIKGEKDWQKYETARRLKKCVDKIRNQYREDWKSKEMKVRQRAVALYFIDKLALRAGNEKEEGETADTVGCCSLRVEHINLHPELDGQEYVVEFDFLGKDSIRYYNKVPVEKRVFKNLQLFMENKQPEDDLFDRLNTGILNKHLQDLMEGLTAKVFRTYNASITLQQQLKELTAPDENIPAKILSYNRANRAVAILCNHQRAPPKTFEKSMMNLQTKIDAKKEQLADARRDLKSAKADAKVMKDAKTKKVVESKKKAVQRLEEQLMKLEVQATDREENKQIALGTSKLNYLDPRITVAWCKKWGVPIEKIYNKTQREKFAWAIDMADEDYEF

[15] = Half life in Sprague-Dawley rat at 10 mg/kg, ip measured upto 24 hrs by LC-MS/MS analysis; type: ADME, organism-based; details: in vivo
Huh-7 [16] = test: Antiproliferative activity against human Huh-7 cells assessed as inhibition of cell proliferation incubated for 72 hrs by MTT assay; type: functional, cell-based; details: Huh-7, 72 h
Huh-7 [17] = test: Induction of cell cycle arrest in human Huh-7 cells assessed as accumulation of cells at S phase 40 nM measured after 24 hrs by flow cytometric assay (reference value: 23.33%); type: functional
NCI-H1703 = test: Antiproliferative activity against human NCI-H1703 cells assessed as decrease in EdU positive cells measured after 24 hrs by Edu incorporation based fluorescence microscopic analysis; type: functional, cell-based; details: dose 10-40 nM
Huh-7 [18] = test: Induction of apoptosis in human Huh-7 cells assessed as early apoptotic cells at 20 nM measured after 24 hrs by Annexin-V-FITC/PI analysis (reference value: 1.04%); type: functional
[19] = Toxicity in BALB/c nude mouse subcutaneously injected with human Huh-7 cells assessed as animal death at 10 to 20 mg/kg, ip administered once daily measured after 14 days; type: organism-based; details: in vivo, 336 h, dose 10-20 mg/kg, time 14 day
Huh-7 [20] = test: In vivo antitumor activity against human Huh-7 cells subcutaneously injected into BALB/C nude mouse assessed as tumor growth inhibition at 10 mg/kg, ip administered once daily measured after 14 days; type: functional; details: Huh-7, 336 h, time 14 day, read-out: TGI
[21] = Toxicity in BALB/c nude mouse subcutaneously injected with human Huh-7 cells assessed as changes in kidney tissue at 10 mg/kg, ip administered once daily measured after 14 days by H and E staining based assay; type: organism-based; details: in vivo, 336 h, time 14 day
SK-HEP1 [22] = test: Induction of cell cycle arrest in human SK-HEP1 cells assessed as accumulation of cells at S phase 80 nM measured after 24 hrs by flow cytometric assay (reference value: 30.04%); type: functional
SK-HEP1 [23] = test: Induction of apoptosis in human SK-HEP1 assessed as loss of mitochondrial membrane potential by measuring JC-1 stained cells at 40 nM measured after 24 hrs by JC-1 staining based flow cytometry (reference value: 0.49%); type: functional
Huh-7 [24] = test: Induction of apoptosis in human Huh-7 cells assessed as late apoptotic cells at 20 nM measured after 24 hrs by Annexin-V-FITC/PI analysis (reference value: 1.23%); type: functional

For C[N+](C)(C)CCC(=O)Oc1ccc2[nH]c3c(c2c1)CCN1C(=O)c2cc(F)cc(F)c2N(c2cccc(F)c2)C31.[I-] (stereo unspecified), the Activity (SK-HEP1 [1]) was 1.31%, the AUC(0-t) at 24 h [2] was 1540 ng·h/mL and the Activity [3] was “Toxic”. For the same molecule, the inhibition (SK-HEP1 [4]) was “Active”, the Activity [5] was “Toxic” and the inhibition (Huh-7 [6]) was “Active”. For the same molecule, the Activity (Huh-7 [7]) was 7.8%, the Activity (SK-HEP1 [8]) was 13.95% and the Activity (Huh-7 [9]) was 11.64%. The Activity [10] was “Non-Toxic”, the Activity [11] was “Non-Toxic” and the Activity (Huh-7 [12]) was 5.93%. The IC50 (SMMC-7721) was 90 nM, the Activity (SK-HEP1 [13]) was 31.15% and the inhibition [14] was “Active”. For the same molecule, the half-life [15] was 3.15 h, the IC50 (Huh-7 [16]) was 40 nM and the Activity (Huh-7 [17]) was 21.3%. For the same molecule, the Activity (NCI-H1703) was “Dose-Dependent Effect”, the Activity (Huh-7 [18]) was 1.31% and the Activity [19] was “Non-Toxic”. For the same molecule, the inhibition in vivo at 10 mg/kg (Huh-7 [20]) was 83.3%, the Activity [21] was “Non-Toxic” and the Activity (SK-HEP1 [22]) was 18.41%. For the same molecule, the Activity (SK-HEP1 [23]) was 1.49% and the Activity (Huh-7 [24]) was 2.03%.
